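Compound exposure: 48 hours, 5 concentrations, 96-well plates. GI50 = concentration required for 50% inhibition of growth. TGI: concentration producing complete growth inhibition.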 Where a SMILES comes first, the peptide text is derived from it. [ ]: non-standard residue; d: D form. The star is where a group is joined. ξ: configuration not given here. ξD = NC(CC(=O)O)C(=O)O; Ac3c = NC1(C(=O)O)CC1; Boc = CC(C)(C)OC(=O)*; OtBu = CC(C)(C)O*
Columns and labels:
Experiment in all cases: DTP human tumour cell line panel, 48 h
[1] = tested on: A498 renal
[2] = tested on: BT-549 breast
[3] = tested on: HT29 colon
[4] = tested on: K-562 leukemia
[5] = tested on: OVCAR-8 ovarian
[6] = tested on: RPMI-8226 leukemia
[7] = tested on: SK-MEL-5 melanoma
[8] = tested on: SK-OV-3 ovarian
[9] = tested on: T-47D breast
[10] = tested on: UACC-62 melanoma

SMILES	TGI [1] [µM]	TGI [2] [µM]	TGI [3] [µM]	TGI [4] [µM]	TGI [5] [µM]	TGI [6] [µM]	TGI [7] [µM]	TGI [8] [µM]	TGI [9] [µM]	TGI [10] [µM]	GI50 [1] [µM]	GI50 [2] [µM]	GI50 [3] [µM]	GI50 [4] [µM]	GI50 [5] [µM]	GI50 [6] [µM]	GI50 [7] [µM]	GI50 [8] [µM]	GI50 [9] [µM]	GI50 [10] [µM]
CCOC(=O)/C(C#N)=C(/NNc1ccccc1)c1ccncc1C(=O)O	> 100	> 100	> 100	> 100	> 100	> 100	> 48.9	> 100	> 100	> 100										
COC(=O)C1(NC(=O)C(CC(=O)OC(C)(C)C)NC(=O)OC(C)(C)C)CC1 (stereo not given) (Boc-[ξD](OtBu)-[Ac3c]-OMe)	> 100	> 100	> 100	> 100	> 100	> 100	> 100	> 100	> 100	> 100										
O=C1CCC2(O)C3Cc4ccc(Oc5nnnn5-c5ccccc5)c5c4C2(CCN3CC2CC2)C1O5 (stereo not given)	90.1	> 100	68.8	> 100	> 100	> 100	25.9	> 100	> 100	76										
O=S(=O)(O)c1cc(O)c2c(O)c(N=Nc3cccc4ccccc34)c(S(=O)(=O)O)cc2c1	> 100	> 100	> 100	> 100	> 100	> 100	> 100	> 100	> 100	> 100										
O=C1NC2CCCCC2N=C1/C(C(=O)c1ccccc1)=C(\O)c1ccccc1 (stereo not given)	> 100	55.3	> 100	> 100	86.6	> 100	> 100	84.8	> 100	68.9										
Clc1nc(Nc2nc3ccccc3[nH]2)nc(Cl)c1Cc1ccccc1	> 100	> 100	> 100	> 100	> 100	> 100	> 100	> 100	> 100	> 100										
CCOC(=O)c1c(N2CCOCC2)[nH]c(=O)c(C(c2cccs2)c2c(O)c(C(=O)OCC)c(N3CCOCC3)[nH]c2=O)c1O	> 100	> 100	> 100	> 100	> 100	> 100	> 100	> 100	> 100	> 100										
CC1(C)CCCCCCCCCC(C)(CCCCCCCCCCCCO)C1=O (stereo not given)	35.7	30.4	31	54.3	28.4	42.2	35.3	33.2	34	33.7										
COc1cc(/C=C2\Cc3cc(OC)c(OC)cc3C2=O)cc(OC)c1	> 100	69.3	> 100	> 100	> 67.5	> 100	> 100	> 84.9	> 100	> 89.4										
COc1ccc(/C(=N/Nc2nc3ccccc3[nH]2)C(=O)O)cc1	> 100	> 100	> 100	> 100	> 100	> 100	> 100	> 100	> 100	> 100										
COc1cc(OC)cc(-c2n/c(=C\c3c(O)[nH]c4ccc(Cl)cc34)cc3c2=Nc2ccccc2-3)c1	> 100	9.75	6.22	6.29	15.5	> 100	62.5	26	17	35.2	30.9	3	2.72	2.72	3.51	16.3	17.7	10.2	4.39	16.9
Oc1nc(N/N=C/c2ccccc2)[nH]c1/C=C1\C=Nc2ccccc21	> 100	> 100	> 100	> 100	> 100	> 100	> 100	> 100	> 100	> 100										
O=C(/C=C(\O)c1ccccc1)/C(=C/C(=O)c1ccccc1)NN=C(c1ccccc1)c1ccccc1	> 100	> 100	> 100	> 100	> 100	> 100	43	92.5	> 100	36.7										
N#CC12C(=O)N3C(=NC(c4ccccc4)NC3c3ccccc3)C1(C#N)C(c1ccccc1)NC1=C2CCCC1 (stereo not given)	> 100	> 100	> 100	> 100	> 100	> 100	> 100	> 100	> 100	> 100										
ONC1=Nc2ccccc2OCc2cc(Br)c(Br)cc2COc2ccccc2N=C1NO	43.2	42.5	> 43.5	> 44.6	> 47.5	43.4	30.4	> 53.1	31.1	35.7										
CC(C)(C)c1cc(C(=O)/C=C/c2ccn[nH]2)cc(C(C)(C)C)c1O	6.25	17	6.59	10.3	6.02	3.37	20.1	31.7	3.32	8.37										
CC(NNC(=O)c1ccncc1)c1ccc(Cl)c(Cl)c1 (stereo not given)	> 100	> 100	> 100	> 100	> 100	> 100	> 100	> 100	> 100	> 100										
CN(CCc1ccc(Cl)c(Cl)c1)CCN(C)CCN1CCCC1	26.3	36.2	12.5	7.27	62	8.97	7.75	54.3	44.6	3.74										
O/N=C1/C2CC3CC1(c1ccccc1)CC(/C3=N/O)/C2=N\O (stereo not given)	> 100	> 100	> 100	> 100	> 100	> 100	> 100	> 100	> 100	> 100										
c1csc(-c2csc(-c3ccsc3)c2)c1	> 100	> 100	> 100	> 100	> 100	> 100	> 100	> 100	> 100	> 100										
C/C=C/[C@H]1O[C@@](O)([C@@H](C)[C@H](O)[C@H](C)[C@H]2OC(=O)/C(OC)=C/C(C)=C/[C@@H](C)[C@@H](O)[C@@H](CC)[C@@H](O)[C@H](C)C/C(C)=C/C=C/[C@@H]2OC)C[C@H](OC2CC(O)C(OC(N)=O)C(C)O2)[C@@H]1C (stereo not given in full)	33.1	19.7	1.59	0.772	21.2	0.205	0.231	25.4	2.12	13.2										
COc1ccc2c(-c3ccc(OCCN(C)C)cc3)c(Oc3ccc(Cl)cc3)c(=O)oc2c1	29.4	37.6	> 46.7	4.95	> 46.9	14.8	3.19	29.3	> 100	7.52										
COc1ccc2c(c1OC)C(=O)O[C@@H]2[C@H]1c2cc3c(cc2CCN1C)OCO3	> 100	> 100	> 100	> 100	> 100	> 100	> 100	> 100	> 100	> 100										
COc1cc([C@H]2Oc3c(OC)cc(CCCO)cc3[C@@H]2CO)ccc1O	> 100	> 100	> 100	> 100	> 100	> 100	> 100	> 100	> 100	> 100										
CC(=O)CC(C)(C)NC(=O)[C@@]1(O)CC[C@H]2[C@@H]3CCC4=CC(=O)CC[C@@H]4[C@H]3CC[C@@]21C	> 100	> 100	> 100	> 100	> 100	> 100	> 100	> 100	> 100	> 100										
